Measurements taken from patent publication US20180133327A1, “Cell Penetrating Peptides and Complexes Comprising the Same” (Amal Therapeutics SA, priority 2015, published 2018).

Columns and labels:
[1] = system: OVA257-264-specific CD8+ T cells from OT-1 T cell receptor (TCR) transgenic mice; assay: Identification of the best ZEBRA CPP truncations in vitro (proliferation assay) and in vivo (CD8 T cell immune response after vaccination); type: cell-based, mouse (C57BL/6; details: each CPP truncation conjugated to OVACD8 epitope; in vitro BMDCs loaded with 0.3 μM, 4 days with OT-1 cells; in vivo 10 nmol s.c. wk0 and wk2 with anti-CD40 and Hiltonol
Description: The functionality of the different ZEBRA CPP truncations was validated both in vitro and in vivo, based on the capacity to stimulate MHC class-I restricted CD8 T cells specific for a model antigen OVA (OVA257-264-specific CD8^+ T cells from OT-1 T cell receptor (TCR) transgenic mice). This capacity should reflect transport of the OVA antigen cargo into APCs. The functional read-out of these experiments was proliferation of OVA-specific CD8 T cells in vitro (FIG. 2A), and for the in vivo studies, the induction of OVA-specific CD8 T cells in the blood of mice vaccinated with the different CPP-OVA conjugates together with adjuvant (FIG. 2B).
To assess the proliferation of OVA-specific CD8 T cells in vitro, bone marrow derived dendritic cells (BMDCs) were prepared from C57BL/6 mice as previously described (Santiago-Raber (2003), J. Exp. Med. 197, 777-788), and used at day 9-10 of culture.
BMDCs were loaded with 0.3 μM of each Zebra CPP truncation (Z13 to Z20) conjugated to OVACD8 epitope as described above for 4 hours at 37° C., washed 3 times, then matured overnight at 37° C. with 100 ng/ml LPS (from Salmonella abortus, equi S-form, Enzo Life Sciences). Antigen-loaded mature BMDC were then mixed at a ratio of 1:10 with OT-1 T cell receptor (TCR) transgenic mice splenocytes that had been stained with 10 μM 5-(and 6) Carboxyfluorescein diacetate succinimidyl ester (CFSE) (Life Technologies). After 4 days co-incubation of spleen cells and BMDCs, antigen-specific proliferation was assessed by flow cytometry, measuring CFSE dilution on CD8 T cells and live-gated cells. OT-1 mice express TCR specific for MHC class I restricted OVA257-264.
To assess the induction of OVA-specific CD8 T cells in vivo, C57/BL6 mice were assigned to nine different groups (Z12 to Z20, respectively). Each group of mice was vaccinated by subcutaneous injection of 10 nmol of one selected Zebra CPP truncation (one selected from Z12 to Z20) conjugated to OVACD8 epitope as described above with 100 μg of anti-CD40 at week0 and week2. Mice were also injected with 50 μg of Hiltonol i.m. (right hind leg). Mice were bled 1 wk after the 2nd vaccination in order to assess OVA257-264-specific CD8 T cells.

[2] = system: human MART1-specific CD8 T cells; assay: In vitro epitope presentation (MHC I) assay by human dendritic cells; type: cell-based; details: human monocyte-derived DCs loaded with 1 μM Zxx-MART1 for 4 h; intracellular staining for CD107, IFN-γ and TNF-α
Protocol: Human monocyte-derived DCs were loaded with 1 μM of scramble-MART1, Z13-MART1, Z14-MART1, Z15-MART1 or Z18-MART1 for 4 h, wash and then incubated o.n. at 37° C. Specific TCR-transfected T cells were then added to DCs and incubated for 5 h with monensin and brefeldinA before intracellular FACS staining for CD107, IFN-γ and TNF-α.
In order to assess the capacity of the ZEBRA CPP truncations to promote epitope presentation by human DCs, the following constructs (Z13-MART1, Z14-MART1, Z15-MART1 and Z18-MART1, with each of the Z13, Z14, Z15 and Z18 CPP conjugated to the HLA-A2 epitope of the tumor associated antigen (TAA) MART1)) were synthesized:
These constructs (Z13, Z14, Z15, and Z18 CPPs conjugated to the HLA-A2 epitope of the tumor associated antigen (TAA) MART1) were assessed for their capacity to promote epitope presentation on MHC class I by human DCs. To this purpose, DCs from an HLA-A2+ donor were prepared from elutriated monocytes, cultured in CelIGro DC medium (CellGenix, Freiburg, Germany) with granulocyte-macrophage colony-stimulating factor (GM-CSF; 2500 U/ml) (Leucomax; Schering-Plough, Kenilworth, N.J.) and interleukin-4 (IL-4; 1000 U/ml) (CellGenix). The immature DCs were matured with cytokines: IL-1β (10 ng/ml), IL-6 (1000 U/ml), tumor necrosis factor α (TNFα; 10 ng/ml) (all from CellGenix) and prostaglandin E2 (1 μg/ml) (Sigma-Aldrich). DCs were rested in CellGro DC medium for 2 hours and loaded with 1 μM Scramble-MART1, Z13-MART1, Z14-MART1, Z15-MART-1 or Z18-MART1 for 4 hrs at 37° C. before being washed once and plated at 300 000 cells per well in round-bottomed 96-well plates. Non-peptide loaded DCs were used as a negative control. T cells were expanded from peripheral blood mononuclear cells using Dynabeads ClinExVivo CD3/CD28 (Life Technologies, Oslo, Norway). Expanded T cells (day 10 post activation) were transfected with the DMFS TCR specific for MART1 by mRNA electroporation. T cells were co-incubated with DCs at a ratio of 1:2 for 5 hours in the presence of GolgiPlug and GolgiStop (both BD Biosciences) before intracellular staining was performed using the following antibodies after FcR blocking; CD4 (RPAT4), CD8 (RPAT8), CD107a (H4A3) (BD Biosciences), IFN-γ (4S.B3) and TNF-α (MAb11) (BD Biosciences), all from eBioscience except where noted. Fixation and permabilization was performed using the PerFix kit from Beckman Coulter according to manufacturer's instructions. Cells were analysed using an LSR II flow cytometer (BD Biosciences) and results were processed with Kaluza (Beckman Coulter) software. All conditions were tested in duplicate, and the experiment was repeated up to three times.

Sequence | promoting cross-presentation (stimulation of OVA-specific CD8 T cells) [1] | stimulation of human MART1-specific CD8 T cells [2]
KRYKNRVASRKSRAKFK (CPP Z15) [ZEBRA CPP truncation] | best truncations for promoting cross-presentation | particularly efficacious
KRYKNRVASRKSRAKFKQLLQHYREVAAAK [Z14] | best truncations for promoting cross-presentation | particularly efficacious
KRYKNRVASRKSRAKFKQLLQHYREVAAAKSSENDRLRLLLK [Z13] | best truncations for promoting cross-presentation | particularly efficacious
REVAAAKSSENDRLRLLLK [Z18] | best truncations for promoting cross-presentation | markedly less efficient
